# Earlier results, collected in patent US7253193B2, “Cyanoguanidine prodrugs” (LEO Pharma A/S, priority 2002, dated 2007).
# What was measured:
# [1] = system: human lung and breast cancer cell lines
# [2] = system: human lung cancer tumour xenograft
# human tumour cells = conditions: also against tumour cells resistant to conventional anticancer drugs such as paclitaxel
compound,measurement,setting,value
N#CNC(=Nc1ccncc1)NCCCCCCOc1ccc(Cl)cc1 [N-(6-(4-chlorophenoxy)hexyl)-N′-cyano-N″-(4-pyridyl)guanidine],antiproliferative activity in vitro,[1],high antiproliferative activity in vitro
same,antitumour activity in the nude mouse model,[2],potent antitumour activity
same,antitumour activity in vivo,human tumour cells,substantial antitumour activity
